Laboratory results reported in patent US4518581A, “Imparting low- or anti-cariogenic property to orally-usable products” (Kabushiki Kaisha Hayashibara Seibutsu Kagaku Kenkyujo, priority 1981, dated 1985).

Key:
[1] = target: T1, water-insoluble glucan producing enzyme (Streptococcus downei, UniProt P27470); assay: Effect of saccharides on formation of water-insoluble glucan from sucrose (Experiment 3); type: biochemical, Streptococcus mutans 6715 strain; settings: 1 ml 4 w/v % sucrose plus 1 ml 4 w/v % saccharide, 0.02 units enzyme, 37° C., 16 hours; for A: amounts of water-insoluble glucan formed: sucrose control 300
T1 construct: endogenous in cells; host or cells: Streptococcus mutans 6715 strain (today S. sobrinus), culture supernatant, ammonium sulfate precipitate, dialyzed
Experimental: After completion of the cultivation, the culture was separated into cell precipitant and supernatant. Thereafter, to the supernatant was added with ammonium sulfate to give 60% saturation, and the resultant precipitant was dialyzed against 0.1M phosphate buffer (pH 7.2) to obtain an aqueous solution containing the enzyme.
The titers of the enzyme were assayed as follows: A mixture solution, consisting of 1 ml of 0.2M aqueous sucrose solution, 1 ml of water, 1 ml of 0.1M phosphate buffer containing 0.05 w/v % NaN3, and 0.5 ml of the enzyme solution (below 0.05 units), is incubated at 37° C. for 9 hours, followed by centrifugation of the reaction mixture. The resultant precipitant is mixed with 4 ml of 0.5N sodium hydroxide solution, and then incubated at this temperature for an additional one hour to dissolve the precipitant. The amount of water-insoluble glucan formed during the enzymatic reaction is then measured. One unit of the enzyme is defined as the amount of enzyme that transfers 1 μmole glucose from sucrose to the water-insoluble glucan in one minute.
Effects of some saccharides on the formation of water-insoluble glucan were tested: Water-insoluble glucan formation and inhibition thereof were determined according to the enzyme assay method as described in EXPERIMENT 1, except that the mixture solution contained sucrose, or sucrose and each saccharide as listed in TABLE I. The experiment was carried out as follows: A mixture solution, consisting of 1 ml of 4 w/v % aqueous sucrose solution, 1 ml of 4 w/v % aqueous solution of each saccharide as listed in TABLE I, 1.5 ml of 0.1M phosphate buffer containing 0.05 w/v % NaN3, and 0.5 ml of the enzyme solution (0.02 units), was incubated at 37° C. for 16 hours, and the water-insoluble glucan formation in the reaction mixture was determined according to the enzyme assy method.
In a control experiment, 1 ml of the above described saccharide solution was replaced with the same amount of water.
The inhibition degree was calculated with following equation:
Inhibition degree (%)=100-A/B×100
where A and B are respective amounts of the water-insoluble glucan formed (μg/ml) when the mixture solution contained sucrose or sucrose and each of the saccharides.

[2] = tested on: Streptococcus mutans 6715 strain; assay: Organic acid formation from saccharides by Streptococcus mutans cells, pH-measurement (Experiment 4); type: cell-based; settings: 37° C., 30 minutes; for organic acid formation from the saccharide: Streptococcus mutans 6715 cells; for pH-Level of the reaction mixture (organic acid formation): cell suspension, Stephan's buffer (pH 7.0), saccharide solution
Experimental: Organic acid formation from some saccharides by Streptococcus mutans was tested: Streptococcus mutans 6715 strain was cultivaed similarly as in EXPERIMENT 1, and the cells, obtained by centrifuging the culture, were washed with 0.9 w/v % sodium chloride solution, followed by additional centrifugation. Two ml of a mixture solution, consisting of 0.2 ml of the cell suspension, prepared from about 100 ml of the culture, 1.5 ml of Stephan's buffer, and 0.3 ml aqueous solution of each saccharide as listed in TABLE II, was incubated at 37° C. for 30 minutes, followed by pH-measurement of the reaction mixture. The Stephan's buffer was prepared by the method as reported by R. M. Stephan et al., Journal of Dental Research, Vol.26, pp.15-41 (1947): One ml of Solution I, prepared by dissolving 17.89 g Na2 HPO4. 12H2 O, 7.92 g KOH and 6.81 g KH2 PO4 in water to give a final volume of 100 ml, was placed in a 100-ml volumetric flask, and mixed with about 90 ml of water. To the flask was added 1 ml of Solution II, prepared by dissolving 4.54 g KH2 PO4, 0.32 g MgSO4.7H2 O, 0.57 g CaSO4.2H2 O and 10 ml of 3.5% hydrochloric acid solution in water to give a final volume of 100 ml. This mixture was diluted with additional water to obtain 100 ml of Stephan's buffer (pH 7.0).
The results are given in TABLE II, wherein the organic acid formation from the saccharides can be estimated by the pH-values.

[3] = target: T1, water-insoluble glucan producing enzyme; assay: Effect of saccharides on formation of water-insoluble glucan from sucrose (Experiment 3); type: biochemical, Streptococcus mutans 6715 strain; settings: saccharide reduced to 10% against sucrose: 1 ml 4 w/v % sucrose plus 1 ml 0.4 w/v % saccharide, 37° C., 16 hours

T1 sequence (P27470 39-1592): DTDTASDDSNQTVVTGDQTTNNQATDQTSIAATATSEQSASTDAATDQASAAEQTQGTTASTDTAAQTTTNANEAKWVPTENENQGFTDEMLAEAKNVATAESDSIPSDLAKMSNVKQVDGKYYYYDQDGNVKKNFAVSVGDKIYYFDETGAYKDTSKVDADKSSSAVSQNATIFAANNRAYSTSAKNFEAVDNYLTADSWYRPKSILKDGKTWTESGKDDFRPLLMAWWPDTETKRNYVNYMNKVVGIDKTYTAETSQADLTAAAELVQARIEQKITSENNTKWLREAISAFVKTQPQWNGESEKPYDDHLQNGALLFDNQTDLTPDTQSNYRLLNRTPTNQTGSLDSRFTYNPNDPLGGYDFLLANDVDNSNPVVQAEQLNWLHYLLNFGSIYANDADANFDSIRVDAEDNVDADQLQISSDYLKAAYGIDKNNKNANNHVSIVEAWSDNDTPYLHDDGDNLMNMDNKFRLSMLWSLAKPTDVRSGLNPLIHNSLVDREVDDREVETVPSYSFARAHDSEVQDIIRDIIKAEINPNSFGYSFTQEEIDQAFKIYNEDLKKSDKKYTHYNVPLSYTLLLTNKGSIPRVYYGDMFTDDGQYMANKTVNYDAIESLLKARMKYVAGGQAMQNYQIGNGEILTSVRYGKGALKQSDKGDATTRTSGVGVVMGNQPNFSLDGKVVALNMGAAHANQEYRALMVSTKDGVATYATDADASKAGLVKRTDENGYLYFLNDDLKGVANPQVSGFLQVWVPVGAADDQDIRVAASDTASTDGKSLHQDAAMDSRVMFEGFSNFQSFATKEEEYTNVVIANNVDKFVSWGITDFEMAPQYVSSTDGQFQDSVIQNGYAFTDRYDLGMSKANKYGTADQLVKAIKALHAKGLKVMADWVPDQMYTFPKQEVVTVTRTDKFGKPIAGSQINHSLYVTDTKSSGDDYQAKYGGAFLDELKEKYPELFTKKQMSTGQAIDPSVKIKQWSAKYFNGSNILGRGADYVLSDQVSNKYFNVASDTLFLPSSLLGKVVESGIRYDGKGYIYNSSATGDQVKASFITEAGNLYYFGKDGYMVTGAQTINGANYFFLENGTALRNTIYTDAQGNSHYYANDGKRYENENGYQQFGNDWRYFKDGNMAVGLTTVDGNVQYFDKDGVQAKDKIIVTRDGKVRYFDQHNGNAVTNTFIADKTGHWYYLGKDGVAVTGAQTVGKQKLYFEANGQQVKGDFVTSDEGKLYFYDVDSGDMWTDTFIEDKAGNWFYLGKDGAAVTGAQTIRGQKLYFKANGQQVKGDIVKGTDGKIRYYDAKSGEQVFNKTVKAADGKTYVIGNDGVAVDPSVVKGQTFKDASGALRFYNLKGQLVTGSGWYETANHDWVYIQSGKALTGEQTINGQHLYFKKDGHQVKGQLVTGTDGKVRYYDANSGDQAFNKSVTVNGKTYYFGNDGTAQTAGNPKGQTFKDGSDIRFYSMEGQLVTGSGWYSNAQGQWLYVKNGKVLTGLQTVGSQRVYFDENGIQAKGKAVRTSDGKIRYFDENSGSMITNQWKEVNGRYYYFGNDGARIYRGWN

Row | Compound | A: amounts of water-insoluble glucan formed [1] | organic acid formation from the saccharide [2] | pH-Level of the reaction mixture (organic acid formation) [2] | C: inhibition degree of water-insoluble glucan formation [3] | C: inhibition degree of water-insoluble glucan formation ([3]; listed as isomaltopentaose) | C: inhibition degree of water-insoluble glucan formation ([3]; listed as isomaltosyl maltose) | C: inhibition degree of water-insoluble glucan formation ([3]; listed as isomaltotetraose) | B: inhibition degree on water-insoluble glucan formation [1]
1 | OC[C@H]1O[C@H](OC[C@H]2O[C@H](OC[C@H]3O[C@H](OC[C@H]4O[C@H](OC[C@H]5OC(O)[C@H](O)[C@@H](O)[C@@H]5O)[C@H](O)[C@@H](O)[C@@H]4O)[C@H](O)[C@@H](O)[C@@H]3O)[C@H](O)[C@@H](O)[C@@H]2O)[C@H](O)[C@@H](O)[C@@H]1O (stereo partly drawn) [Isomaltopentaose, 6^3 -O-α-isomaltosyl isomaltotriose] | 15 µg/mL | no organic acid formation | 7.0 | 60% | 45-60% | – | – | –
2 | OC[C@H]1O[C@H](OC[C@H]2O[C@H](O[C@H]3[C@H](O)[C@@H](O)[C@@H](O[C@H]4[C@H](O)[C@@H](O)C(O)O[C@@H]4CO)O[C@@H]3CO)[C@H](O)[C@@H](O)[C@@H]2O)[C@H](O)[C@@H](O)[C@@H]1O (stereo partly drawn) [Isomaltosyl maltose, 4^2 -O-α-isomaltosyl maltose] | 24 µg/mL | no organic acid formation | 7.0 | 55% | – | 45-60% | – | –
3 | OC[C@H]1O[C@H](OC[C@H]2O[C@H](OC[C@H]3O[C@H](OC[C@H]4OC(O)[C@H](O)[C@@H](O)[C@@H]4O)[C@H](O)[C@@H](O)[C@@H]3O)[C@H](O)[C@@H](O)[C@@H]2O)[C@H](O)[C@@H](O)[C@@H]1O (stereo partly drawn) [Isomaltotetraose, 6^2 -O-α-isomaltosyl isomaltose] | 18 µg/mL | no organic acid formation | 7.0 | 58% | – | – | 45-60% | –
4 | OC[C@H]1O[C@H](O[C@H]2[C@H](O)[C@@H](O)[C@@H](O[C@H]3[C@H](O)[C@@H](O)[C@@H](O[C@H]4[C@H](O)[C@@H](O)[C@@H](O[C@H]5[C@H](O)[C@@H](O)C(O)O[C@@H]5CO)O[C@@H]4CO)O[C@@H]3CO)O[C@@H]2CO)[C@H](O)[C@@H](O)[C@@H]1O (stereo partly shown) [Maltopentaose] | 264 µg/mL | – | 5.6 | – | – | – | – | 12%
5 | OC[C@H]1O[C@H](O[C@H]2[C@H](O)[C@@H](O)[C@@H](O[C@H]3[C@H](O)[C@@H](O)[C@@H](O[C@H]4[C@H](O)[C@@H](O)C(O)O[C@@H]4CO)O[C@@H]3CO)O[C@@H]2CO)[C@H](O)[C@@H](O)[C@@H]1O (stereo partly shown) [Maltotetraose] | 255 µg/mL | – | 5.3 | – | – | – | – | 15%
6 | OC[C@@H](O)[C@@H](O[C@H]1O[C@H](CO)[C@@H](O[C@H]2O[C@H](CO)[C@@H](O)[C@H](O)[C@H]2O)[C@H](O)[C@H]1O)[C@H](O)[C@@H](O)CO [Maltotriitol] | 262 µg/mL | – | 7.0 | – | – | – | – | 13%
7 | OC[C@H]1O[C@H](O[C@H]2[C@H](O)[C@@H](O)[C@@H](O[C@H]3[C@H](O)[C@@H](O)C(O)O[C@@H]3CO)O[C@@H]2CO)[C@H](O)[C@@H](O)[C@@H]1O (stereo partly shown) [Maltotriose] | 213 µg/mL | – | 5.0 | – | – | – | – | 29%
8 | O=C(CO)[C@@H](O)[C@H](O[C@H]1O[C@H](CO)[C@@H](O)[C@H](O)[C@H]1O)[C@H](O)CO [Maltulose] | 180 µg/mL | – | 7.0 | – | – | – | – | 40%
9 | OC[C@@H](O)[C@@H](O)[C@H](O)[C@H](O)CO [Mannitol] | 286 µg/mL | – | 7.0 | – | – | – | – | 5%
10 | OC[C@H]1O[C@H](OC[C@H]2OC(O)[C@H](O)[C@@H](O)[C@@H]2O)[C@H](O)[C@@H](O)[C@H]1O (stereo partly shown) [Melibiose] | 300 µg/mL | – | 7.0 | – | – | – | – | –
11 | CO[C@H]1O[C@H](CO)[C@@H](O)[C@H](O)[C@H]1O [Methyl-α-D-Glucose] | – | – | 7.0 | – | – | – | – | 14%
12 | CC(=O)N[C@H]1C(O)O[C@H](CO)[C@@H](O)[C@@H]1O (stereo partly shown) [N--Acetyl glucosamine] | 285 µg/mL | – | 7.0 | – | – | – | – | 5%
13 | OC[C@@H](O)[C@@H](O[C@H]1O[C@H](CO[C@H]2O[C@H](CO)[C@@H](O)[C@H](O)[C@H]2O)[C@@H](O)[C@H](O)[C@H]1O)[C@H](O)[C@@H](O)CO [Pannitol, 4-O-α-isomaltosyl glucitol] | 70 µg/mL | no organic acid formation | 7.0 | – | – | – | – | –
14 | C[C@@H]1OC(O)[C@H](O)[C@H](O)[C@H]1O (stereo partly drawn) [Rhamnose, L-Rhamnose] | 300 µg/mL | – | 7.0 | – | – | – | – | 0%
15 | OC[C@@H](O)[C@@H](O)[C@H](O)[C@@H](O)CO [Sorbitol] | 290 µg/mL | – | 7.0 | – | – | – | – | 8%
16 | OC[C@H]1O[C@H](O[C@H]2O[C@H](CO)[C@@H](O)[C@H](O)[C@H]2O)[C@H](O)[C@@H](O)[C@@H]1O [Trehalose] | 297 µg/mL | – | 7.0 | – | – | – | – | 1%
17 | O=C(CO)[C@@H](O[C@H]1O[C@H](CO)[C@@H](O)[C@H](O)[C@H]1O)[C@H](O)[C@H](O)CO [Turanose] | 273 µg/mL | – | 7.0 | – | – | – | – | 9%
18 | OC[C@@H](O)[C@H](O)[C@@H](O)CO [Xylitol] | 280 µg/mL | – | 7.0 | – | – | – | – | 7%
19 | Inulobiose | 276 µg/mL | – | 4.5 | – | – | – | – | 8%
